# Data published in US8975289B2, “Benzyl aralkyl ether compounds, method for preparing same, intermediate compounds, use of said compounds, method for treatment and/or prevention, pharmaceutical composition and medicament containing same” (priority 2009, dated 2015).
# Assays:
# Type in all cases: cell-based
# [1] = system: three different species of yeast and two distinct species of bacteria; test: Growth inhibition of the yeast and bacteria strains of Table 5, summary
# Procedure: For the experiments of the present invention (i) yeast strains obtained from clinical isolates and laboratory isolates, and (ii) bacterial strains obtained from laboratory isolates were used, as described in Table 5 as follows.
# The yeast strains were grown in culture medium Sabouraud Dextrose Agar maintained at a temperature of 35° C. for 48 hours.
# The bacterial strains were grown in culture medium Triptic Soy Agar at 35° C. for two to six hours (or until the turbidity of a McFarland standard solution equal to 0.5). 5.2 Mounting of Preparations and Test For the experiments, compound 1-[2-(2,4-dichlorophenyl)-2-{[4-(trifluoromethyl)benzyl]oxy}ethyl]-1H-imidazole (BL-123) in the form of its nitrate salt, 1-[2-(2,4-dichlorophenyl)]-2-({4-[(2-phenyl)-2H-tetrazole]benzyl}oxy)ethyl]-1H-imidazole (BL-137), and miconazole nitrate were used. The compounds were dissolved in dimethyl sulfoxide (DMSO) to match the final concentration of the compound equal to or less than 1%.
# The methodology used to test the sensitivity of the agent was broth microdilution according to the method described in Standard M27-A2 (Reference method for broth dilution tests to determine the sensitivity of yeasts to antifungal therapy-second edition, NCCLS, volume 22 number 15, USA, 2002) as follows.
# The yeast strains were grown according to item 5.1.a to obtain a culture containing between 1×10^6 and 5×10^6 CFU/mL. […]
# [2] = system: Staphylococcus epidermidis 12228; test: Broth microdilution MIC (M7-A6), bacteria, strain XVII; conditions: strain XVII 12228, 24 hours incubation
# Procedure: (§1) For the experiments of the present invention (i) yeast strains obtained from clinical isolates and laboratory isolates, and (ii) bacterial strains obtained from laboratory isolates were used, as described in Table 5 as follows. […] The compounds were dissolved in dimethyl sulfoxide (DMSO) to match the final concentration of the compound equal to or less than 1%. The methodology used to test the sensitivity of the agent was broth microdilution according to the method described in Standard M7-A6 (Methodology of sensitivity tests to antimicrobial agents by dilution for bacteria with aerobic growth-6th Edition: NCCLS, volume 23, No. 2, USA, 2003), as follows. […] Then the suspensions were diluted in Mueller Hinton culture medium to a final concentration of 5×10^4CFU/mL. The diluted suspensions were inoculated in 0.1 mL in duplicates in […] plates. The procedure was performed in a laminar flow. […] Incubation of fungi with these compounds was carried out for 24 hours at a temperature of 30 to 35° C. […] We have agreed in this experiment that the turbid medium is the result of microbial growth and the presence of deposit and a clear medium represents the absence of microbial growth. The minimum inhibitory concentration (MIC) was defined as the lowest tested drug concentration that prevents any degree of bacterial growth.
# [3] = system: Staphylococcus aureus 6538; test: Broth microdilution MIC (M7-A6), bacteria, strain XVIII; conditions: strain XVIII 6538, 24 hours incubation
# Procedure: as §1
# [4] = system: Candida parapsilosis 22019; test: Broth microdilution MIC (M27-A2), yeast, strain XV; conditions: strain XV 22019, 48 hours incubation
# Procedure: (§2) For the experiments of the present invention (i) yeast strains obtained from clinical isolates and laboratory isolates, and (ii) bacterial strains obtained from laboratory isolates were used, as described in Table 5 as follows. The yeast strains were grown in culture medium Sabouraud Dextrose Agar maintained at a temperature of 35° C. for 48 hours. […] The compounds were dissolved in dimethyl sulfoxide (DMSO) to match the final concentration of the compound equal to or less than 1%. The methodology used to test the sensitivity of the agent was broth microdilution according to the method described in Standard M27-A2 (Reference method for broth dilution tests to determine the sensitivity of yeasts to antifungal therapy-second edition, NCCLS, volume 22 number 15, USA, 2002) as follows. […] Then the suspensions were diluted in culture medium RPMI-1640 (buffered with MOPS 0.165 mol/l) at a final concentration of 50 to 2500 CFU/mL. The diluted suspensions were inoculated in duplicate in a 96-well plate. The procedure was performed in a laminar flow. […] The incubation of fungi with these compounds was carried out for 48 hours at temperature of 30 to 35° C. […] We have agreed in this experiment that the turbid medium is the result of microbial growth and the presence of deposit and a clear medium represents the absence of microbial growth. The minimum inhibitory concentration (MIC) was defined as the lowest tested drug concentration that prevents any degree of […] growth.
# Candida glabrata 2001 = test: Broth microdilution MIC (M27-A2), yeast, strain XVI; conditions: strain XVI 2001, 48 hours incubation
# Procedure: as §2
# Candida albicans 10231 = test: Broth microdilution MIC (M27-A2), yeast, strain XIV; conditions: strain XIV 10231, 48 hours incubation
# Procedure: as §2
smiles,measurement,setting,value
Clc1ccc(C(Cn2ccnc2)OCc2ccc(-c3nnn(-c4ccccc4)n3)cc2)c(Cl)c1 (stereo not drawn) [BL-137],Inhibitory effect on growth (in words),[1],exert an inhibitory effect on the growth
same,MIC,[2],128.0 µg/mL
same,MIC,[3],128.0 µg/mL
same,MIC,[4],512.0 µg/mL
same,MIC,Candida glabrata 2001,512.0 µg/mL
same,MIC,Candida albicans 10231,512.0 µg/mL
